The target in assay [1] is Mcl-1 protein (UniProtKB primary accession number: Q07820) (Homo sapiens, UniProt Q07820). The assay is described as follows: Inhibition of Mcl-1 by fluorescence polarisation, Method 1. As to conditions: read-out: IC50 (M) Mcl-1 FP. It is filed as binding. In short, it runs like this: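 FP competition, 11-point compound titration in 5% final DMSO; protein and labelled probe at 5 nM and 1 nM final in HEPES/NaCl/Tween 20 buffer, pH 7.4.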

For assay [2], the system named is H929 multiple myeloma tumour line. The assay is described as follows: In vitro cytotoxicity, Microculture Tetrazolium Assay. It is filed as cell-based. As to conditions: Homo sapiens, NCI-H929, 48 h. Here is the method: The cytotoxicity studies were carried out on the H929 multiple myeloma tumour line.
The cells are distributed onto microplates and exposed to the test compounds for 48 hours.

Setting [3] is: fluorescence polarisation test, Method 2 values are underlined in the patent (underlining not visible here).
The mark [4] stands for this setting: H929 cells, 48 hours exposure, MTT, read-out: IC50 (μM) MTT H929.
Setting [5] is: fluorescence polarisation, Method 1, or Method 2.

Read-outs that look alike come from different tables or passages of the source.

Mcl-1 protein, sequence (Q07820 whole entry): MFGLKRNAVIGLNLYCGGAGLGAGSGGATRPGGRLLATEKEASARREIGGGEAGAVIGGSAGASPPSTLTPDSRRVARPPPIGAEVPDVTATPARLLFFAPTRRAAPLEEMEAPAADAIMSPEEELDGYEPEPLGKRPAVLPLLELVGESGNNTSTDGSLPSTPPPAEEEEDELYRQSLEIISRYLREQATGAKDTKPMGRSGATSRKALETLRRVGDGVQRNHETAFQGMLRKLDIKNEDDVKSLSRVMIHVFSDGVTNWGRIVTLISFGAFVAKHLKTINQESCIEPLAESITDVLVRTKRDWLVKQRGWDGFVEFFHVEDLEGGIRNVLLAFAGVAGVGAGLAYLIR

For the molecule `Cc1c(-c2c(-c3ccco3)sc3ncnc(OC(Cc4ccccc4OCc4nccc5ccccc45)C(=O)O)c23)ccc(OCCN2CCN(C)CC2)c1Cl` [Example 284, (2R)-2-{[(5Sa)-5-{3-chloro-2-methyl-4-[2-(4-methylpiperazin-1-yl)ethoxy]phenyl}-6-(furan-2-yl)thieno[2,3-d]pyrimidin-4-yl]oxy}-3-[2-(isoquinolin-1-ylmethoxy)phenyl]propanoic acid], the figures for the IC50 in assay [1] (setting [3]) and in assay [2] (setting [4]) were 4.8e-08 M and 1.79 µM, respectively.

Turning to `Cc1c(-c2c(-c3ccco3)sc3ncnc(OC(Cc4ccccc4OCc4ncccn4)C(=O)O)c23)ccc(OCCN2CCN(C)CC2)c1Cl` [Example 286, (2R)-2-{[(5Sa)-5-{3-chloro-2-methyl-4-[2-(4-methylpiperazin-1-yl)ethoxy]phenyl}-6-(furan-2-yl)thieno[2,3-d]pyrimidin-4-yl]oxy}-3-[2-(pyrimidin-2-ylmethoxy)phenyl]propanoic acid], the IC50 is 7.6e-09 M in assay [1] (setting [3]) and 0.508 µM in assay [2] (setting [4]).

As to `COCCOCCOCCOc1ccccc1CC(Oc1ncnc2sc(-c3ccc(F)cc3)c(-c3ccc(OCCN4CCN(C)CC4)c(Cl)c3C)c12)C(=O)O` [Example 106, (2R)-2-{[(5Sa)-5-{3-chloro-2-methyl-4-[2-(4-methylpiperazin-1-yl)ethoxy]phenyl}-6-(4-fluorophenyl)thieno[2,3-d]pyrimidin-4-yl]oxy}-3-(2-{2-[2-(2-methoxyethoxy)ethoxy]ethoxy}phenyl)propanoic acid], the figures for the half-inhibitory concentration (IC50) in assay [1] (setting [3]) and in assay [2] (setting [4]) were 1.2e-08 M and 0.195 µM, respectively.

In the case of `CCn1nccc1COc1ccccc1CC(Oc1ncnc2sc(-c3ccc(F)o3)c(-c3ccc(OCCN(C)C)c(Cl)c3C)c12)C(=O)O` [Example 204, (2R)-2-{[(5Sa)-5-{3-chloro-4-[2-(dimethylamino)ethoxy]-2-methylphenyl}-6-(5-fluorofuran-2-yl)thieno[2,3-d]pyrimidin-4-yl]oxy}-3-{2-[(1-ethyl-1H-pyrazol-5-yl)methoxy]phenyl}propanoic acid], the half-inhibitory concentration (IC50) came out at 4.9e-09 M in assay [1] (setting [3]) and 0.034 µM in assay [2] (setting [4]).

Regarding `CCN1CCN(CCOc2ccc(-c3c(-c4ccco4)sc4ncnc(OC(Cc5ccccc5OC)C(=O)O)c34)c(C)c2Cl)CC1` [Example 322, (2R)-2-{[(5Sa)-5-{3-chloro-4-[2-(4-ethylpiperazin-1-yl)ethoxy]-2-methylphenyl}-6-(furan-2-yl)thieno[2,3-d]pyrimidin-4-yl]oxy}-3-(2-methoxyphenyl)propanoic acid], the 50% inhibitory concentration (IC50) in assay [1] (setting [3]) turned out to be 4.3e-09 M; in assay [2] (setting [4]) it was 0.113 µM.

Consider `Cc1c(-c2c(-c3ccco3)sc3ncnc(OC(Cc4ccccc4OCc4ccnc(OCc5ccccc5)n4)C(=O)O)c23)ccc(OCCN2CCN(C)CC2)c1Cl` [Example 257, (2R)-3-(2-{[2-(benzyloxy)pyrimidin-4-yl]methoxy}phenyl)-2-{[(5Sa)-5-{3-chloro-2-methyl-4-[2-(4-methylpiperazin-1-yl)ethoxy]phenyl}-6-(furan-2-yl)thieno[2,3-d]pyrimidin-4-yl]oxy}propanoic acid], for which the IC50 in assay [1] (setting [3]) was determined as 5e-09 M; in assay [2] (setting [4]) it was 0.019 µM.

Turning to `Cc1c(-c2c(-c3ccco3)sc3ncnc(OC(Cc4ccccc4OC4CCN(C)C4)C(=O)O)c23)ccc(OCCN2CCN(C)CC2)c1Cl` [Example 214, (2R)-2-{[(5Sa)-5-{3-chloro-2-methyl-4-[2-(4-methylpiperazin-1-yl)ethoxy]phenyl}-6-(furan-2-yl)thieno[2,3-d]pyrimidin-4-yl]oxy}-3-{2-[(1-methylpyrrolidin-3-yl)oxy]phenyl}propanoic acid], the figures for the 50% inhibitory concentration (IC50) in assay [1] (setting [3]) and in assay [2] (setting [4]) were 9.3e-09 M and 0.897 µM, respectively.

In the case of `Cc1c(-c2c(-c3ccco3)sc3ncnc(OC(Cc4ccccc4OCc4ccnn4C)C(=O)O)c23)ccc(OCCN2CCN(C)CC2)c1Cl` [Example 260, (2R)-2-{[(5Sa)-5-{3-chloro-2-methyl-4-[2-(4-methylpiperazin-1-yl)ethoxy]phenyl}-6-(furan-2-yl)thieno[2,3-d]pyrimidin-4-yl]oxy}-3-{2-[(1-methyl-1H-pyrazol-5-yl)methoxy]phenyl}propanoic acid], the IC50 was determined as 6.7e-09 M in assay [1] (setting [3]) and 0.033 µM in assay [2] (setting [4]).

In the case of `Cc1c(-c2c(-c3ccco3)sc3ncnc(OC(Cc4ccccc4OC(F)F)C(=O)O)c23)ccc(OCCN2CCN(C)CC2)c1Cl` [Example 338, (2R)-2-{[(5Sa)-5-{3-chloro-2-methyl-4-[2-(4-methylpiperazin-1-yl)ethoxy]phenyl}-6-(furan-2-yl)thieno[2,3-d]pyrimidin-4-yl]oxy}-3-[2-(difluoromethoxy)phenyl]propanoic acid], the IC50 in assay [1] (setting [3]) was determined as 3e-08 M; in assay [2] (setting [4]) it was 1.04 µM.

`COc1ccccc1CC(Oc1ncnc2sc(-c3ccco3)c(-c3ccc(OC4CCN(C)C4)c(Cl)c3C)c12)C(=O)O` [Example 303, (2R)-2-{[(5Sa)-5-{3-chloro-2-methyl-4-[(1-methylpyrrolidin-3-yl)oxy]phenyl}-6-(furan-2-yl)thieno[2,3-d]pyrimidin-4-yl]oxy}-3-(2-methoxyphenyl)propanoic acid]: the IC50 worked out at 9.3e-09 M in assay [1] (setting [3]) and 0.998 µM in assay [2] (setting [4]).

Regarding `Cc1c(-c2c(-c3cccc(F)c3F)sc3ncnc(OC(Cc4ccccc4OCc4ccnn4C(C)(C)C)C(=O)O)c23)ccc(OCCN(C)C)c1Cl` [Example 755, (2R)-3-{2-[(1-tert-butyl-1H-pyrazol-5-yl)methoxy]phenyl}-2-{[(5Sa)-5-{3-chloro-4-[2-(dimethylamino)ethoxy]-2-methylphenyl}-6-(2,3-difluorophenyl)thieno[2,3-d]pyrimidin-4-yl]oxy}propanoic acid], the figures for the IC50 in assay [1] (setting [5]) and in assay [2] (setting [4]) were 4.65e-09 M and 0.032 µM, respectively.

In the case of `Cc1c(-c2c(-c3ccc(Cl)o3)sc3ncnc(OC(Cc4ccccc4OCc4ccnc(C(F)(F)F)n4)C(=O)O)c23)ccc(OCCN2CCN(C)CC2)c1Cl` [Example 367, (2R)-2-{[6-(5-chlorofuran-2-yl)-(5Sa)-5-{3-chloro-2-methyl-4-[2-(4-methylpiperazin-1-yl)ethoxy]phenyl}thieno[2,3-d]pyrimidin-4-yl]oxy}-3-(2-{[2-(trifluoromethyl)pyrimidin-4-yl]methoxy}phenyl)propanoic acid], the results for the half-inhibitory concentration (IC50) in assay [1] (setting [3]) and in assay [2] (setting [4]) were 3.2e-09 M and 0.015 µM, respectively.

Regarding `Cc1c(-c2c(-c3ccco3)sc3ncnc(OC(Cc4ccccc4OCc4cnc(Cl)cn4)C(=O)O)c23)ccc(OCCN2CCN(C)CC2)c1Cl` [Example 269, (2R)-2-{[(5Sa)-5-{3-chloro-2-methyl-4-[2-(4-methylpiperazin-1-yl)ethoxy]phenyl}-6-(furan-2-yl)thieno[2,3-d]pyrimidin-4-yl]oxy}-3-{2-[(5-chloropyrazin-2-yl)methoxy]phenyl}propanoic acid], the results for the half-inhibitory concentration (IC50) in assay [1] (setting [3]) and in assay [2] (setting [4]) were 1.1e-08 M and 0.069 µM, respectively.

For `COc1ccccc1CC(Oc1ncnc2sc(-c3ccco3)c(-c3ccc(OCCN4CCN(Cc5ccccc5)CC4)c(Cl)c3C)c12)C(=O)O` [Example 329, (2R)-2-{[(5Sa)-5-{4-[2-(4-benzylpiperazin-1-yl)ethoxy]-3-chloro-2-methylphenyl}-6-(furan-2-yl)thieno[2,3-d]pyrimidin-4-yl]oxy}-3-(2-methoxyphenyl)propanoic acid], the IC50 in assay [1] (setting [3]) was determined as 6e-08 M; in assay [2] (setting [4]), 3.31 µM.

Turning to `Cc1c(-c2c(-c3ccc(F)cc3)sc3ncnc(OC(Cc4ccccc4OCc4ccnc(C(C)(C)C)n4)C(=O)O)c23)ccc(OCCN2CCN(C)CC2)c1Cl` [Example 23, (2R)-3-{2-[(2-tert-butylpyrimidin-4-yl)methoxy]phenyl}-2-{[(5Sa)-5-{3-chloro-2-methyl-4-[2-(4-methylpiperazin-1-yl)ethoxy]phenyl}-6-(4-fluorophenyl)thieno[2,3-d]pyrimidin-4-yl]oxy}propanoic acid], the figures for the IC50 in assay [1] (setting [3]) and in assay [2] (setting [4]) were 2.4e-08 M and 0.054 µM, respectively.

On to `COc1ccccc1C[C@@H](Oc1ncnc2sc(-c3ccco3)c(-c3ccc(OCCN4CCN(C)CC4)c(F)c3C)c12)C(=O)O` (single isomer, unassigned) [Example 334], for which the half-maximal inhibitory concentration (IC50) in assay [1] (setting [3]) turned out to be 1.4e-08 M; in assay [2] (read-out: IC50 (μM) MTT H929, H929 cells, 48 hours exposure, MTT), 0.968 µM.

`COc1ccccc1CC(Oc1ncnc2sc(-c3ccco3)c(-c3ccc(OCC4CCCCN4C)c(Cl)c3C)c12)C(=O)O` (single isomer, unassigned) [Example 309, (2R)-2-{[(5Sa)-5-{3-chloro-2-methyl-4-[((2S or R)-1-methylpiperidin-2-yl)methoxy]phenyl}-6-(furan-2-yl)thieno[2,3-d]pyrimidin-4-yl]oxy}-3-(2-methoxyphenyl)propanoic acid]: the IC50 in assay [1] (setting [3]) came out at 1e-08 M; in assay [2] (setting [4]), 1.48 µM.

`CC#Cc1sc2ncnc(OC(Cc3ccccc3OC)C(=O)O)c2c1-c1cc(F)c(OCCN2CCN(C)CC2)c(Cl)c1C` [Example 476, (2R)-2-{[(5Sa)-5-{3-chloro-5-fluoro-2-methyl-4-[2-(4-methylpiperazin-1-yl)ethoxy]phenyl}-6-(prop-1-yn-1-yl)thieno[2,3-d]pyrimidin-4-yl]oxy}-3-(2-methoxyphenyl)propanoic acid]: the concentration for half-maximal inhibition (IC50) in assay [1] (setting [5]) is 2e-08 M; in assay [2] (setting [4]), 1.03 µM.

On to `CCCCn1nccc1COc1ccccc1CC(Oc1ncnc2sc(-c3ccc(OCC)cc3)c(-c3ccc(OCCN4CCN(C)CC4)c(Cl)c3C)c12)C(=O)O` [Example 604, (2R)-3-{2-[(1-butyl-1H-pyrazol-5-yl)methoxy]phenyl}-2-{[(5Sa)-5-{3-chloro-2-methyl-4-[2-(4-methylpiperazin-1-yl)ethoxy]phenyl}-6-(4-ethoxyphenyl)thieno[2,3-d]pyrimidin-4-yl]oxy}propanoic acid], for which the values for the IC50 in assay [1] (setting [5]) and in assay [2] (setting [4]) were 5.7e-09 M and 0.064 µM, respectively.

These data come from patent publication US9670227B2, “Thienopyrimidine derivatives, a process for their preparation and pharmaceutical compositions containing them” (LES LABORATOIRES SERVIER, priority 2013, dated 2017).
